Test results as given in PMC6458995, “MAP4K4 Inhibition Promotes Survival of Human Stem Cell-Derived Cardiomyocytes and Reduces Infarct Size In Vivo” (Cell Stem Cell, 2019).

System: rat ventricular myocytes
Experiment: Rat cardiac muscle cell death induced by H2O2 (sub-G1 DNA, flow cytometry)
Assay type: cell-based
Procedure: Ventricular myocytes from 1 to 3 day-old Sprague-Dawley rats were enzymatically dissociated, purified by Percoll gradient centrifugation and pre-plating, and cultured as described ([Oh et al., 2003]). To detect hypodiploid DNA, flow cytometry was performed (XL or LSRII, BD Biosciences), using propidium iodide to measure DNA content and sampling > 5000 cells for each histogram. Myocyte identity was confirmed using FITC-conjugated MF-20 antibody to sarcomeric MyHC (R&D Systems). To detect dissipation of mitochondrial membrane potential (ΔΨm), cells were incubated for 60 min in 5 μg ml^-1 5, 5′, 6, 6’-tetrachloro-1, 1’, 3, 3′-tetraethylbenzimidazolyl carbocyanine iodide (DePsipher; R&D Systems). When ΔΨm is intact, mitochondrial uptake and aggregation of the dye result in red fluorescence; when ΔΨm is disturbed, the dye diffuses to the cytoplasm and reverts to its monomeric green form. Myocyte identity was confirmed using mouse antibody to sarcomeric tropomyosin (Sigma-Aldrich) conjugated with Texas Red-X (Molecular Probes).

In the case of `Oc1ncnc2c1c(-c1ccccc1)cn2-c1ccccc1` [F1386-0303, 5,7-diphenyl-7H-pyrrolo[2,3-d]pyrimidin-4-ol], the rat cardiomyocyte death (H2O2, even at 1 μM) is reported as “inhibited”, the inhibition at 10 µM (Ventricular myocyte, rat ventricular myocytes, 10 μM) is reported as roughly 50% and the “adverse effect of compound” value (rat ventricular myocytes, any of the concentrations (1-10 μM)) is reported as “No adverse effect”.
